According to patent publication US12662707B2, “MYC amplification drives resistance to pan-RAS inhibitors in pancreatic cancer” (The Trustees of Columbia University in the City of New York, priority 2024, dated 2026):

How the values were obtained:
[1] = system: human PDAC cell lines; test: Human cell line proliferation / viability assay; format: cell-based
Description: 19 PDAC cell lines were tested for sensitivity to RMC-7977 as part of a panel of human cancer cell lines of various histotypes screened at Crown Bioscience. These PDAC cell lines harbored KRASG12D, KRASG12V, KRASG12C, KRASQ61H, and BRAFV487_P492delinsA
mutations. To measure inhibition of cell proliferation, cells were cultured in methylcellulose and treated in triplicates with serial dilutions of RMC-7977 (top concentration of 1 μM) or DMSO dispensed by a Tecan D300e digital dispenser (Tecan Trading AG). Cells were incubated for 120 hours prior to measurement of ATP levels using CellTiter-Glo. Technical triplicates were run for each biological replicate and a total of three biological replicates was done for each cell line. CTG assay readouts were plotted as a function of log molar [inhibitor] and a 4-parameter sigmoidal concentration response model was fitted to the data. Mean±s.d. was plotted for each tested dilution.
PDAC cell lines harboring KRASWT or KRASQ61H were plated at 500-4,000 cells/well in clear, flat-bottomed 96-well plates (Corning) and grown for 24 h prior to adding indicated concentration of RMC-7977 or DMSO using the D300e digital dispenser (Tecan). Following treatment, cells were incubated for additional 3-5 days after which live cells were fluorescently labelled using Calcein AM (20-minute incubation at 500 nM, Thermo Fisher) and counted using the SpectraMax i3X multimode detection platform (Molecular Devices). Experiments were day 0 normalized using an independent culture plate. Growth percentage was calculated by normalizing drug-treated values to DMSO control, which was set to 100%. Four-parameter sigmoidal concentration response models were fitted to the data from 3 or more biological replicates. Mean±s.d. was plotted for each tested dilution.

[2] = system: murine PDAC cell lines; test: Murine cell viability assay; format: cell-based; settings: most murine PDAC cell lines; 72 hours
Description: PDAC murine cell lines harboring KrasG12D or KrasG12C mutations were seeded at 2×10^3 in a 96-well plate. Cells were treated 24 hours later with DMSO or serial dilutions of RMC-7977. Cell viability was evaluated 72 hours later by measuring adenosine triphosphate (ATP) levels using the CellTiter-Glo® Luminescent Cell Viability Assay (Promega, G7572) according to the manufacturer's instructions. For experiments comparing naive and resistant cell lines, live cells were fluorescently labelled using Calcein AM (20-minute incubation at 500 nM, Thermo Fisher) and counted using the SpectraMax i3X multimode detection platform (Molecular Devices). Technical triplicates were run for each biological replicate and a total of 3-4 biological replicates was done for each cell line. Growth percentage was calculated by normalizing drug-treated values to DMSO control, which was set to 100%. Four-parameter drug response curves were generated from 3+ biological replicates in GraphPad Prism. Mean±s.d. was plotted for each tested dilution.

[3] = system: pERK, pS6, CC3, Cyclin A2 in KPC tumors; test: Pharmacodynamic IHC of KPC tumors (SD, 1 wk, EP); format: in vivo, mouse
Description: Tumor formation in KPC mice was monitored by bi-weekly palpation. […] Treatments were performed every other day via oral gavage for 1 week. […] Following two consecutive ultrasounds, RMC-7977-treated animals were sacrificed either 4 (n=7) or 24 hours (n=4) after last dose and Vehicle-treated animals were sacrificed between 4-24 hours post last dose. Tissue was harvested and preserved as previously described (See Xenograft studies section). Additional group of KPC mice was also treated with a single dose of RMC-7977 (n=10) or Vehicle (n=3) and tissues were harvested at 4 or 24 hours post dose as previously described. […] RNA was extracted from at least 20 mg of indicated OCT or LN2 frozen tissue using an RNeasy Mini Kit (Qiagen, 74104) and a High Throughput Tissue grinder following the manufacturer's protocol. Reverse transcription was carried out using High-Capacity cDNA Reverse Transcription Kit (ABI, 4368814) according to the manufacturer's protocol. The cDNA product was used for qPCR analysis using TaqMan Gene Expression Master Mix (ABI, 4369016) or iTaq Universal SYBR Green Supermix (BioRad, 172-5125) depending on the primer. […] For qPCR, Ct value of MAPK signature genes and 18S were obtained for analysis. Generated Ct value were normalized to 18S, and then the mean relative mRNA expression levels of each sample were normalized to the average of the vehicle control group. Values were plotted as relative change in mRNA expression compared to Vehicle. Means±s.d. were shown. For primer sequences and more information. All tissues were fixed for up to 24 hours using 10% neutral buffered formalin and then moved to 70% ethanol for long term storage. All stainings were performed on 4-μm tissue sections. Sections were deparaffinized using a Leica XL ST5010 autostainer, after which slides were subjected to heat-activated epitope retrieval. […] Slides were further blocked in serum for 1 hour, and primary antibodies were added for overnight incubation at 4° C. […] Following incubation, ImmPACT DAB peroxidase (Vector Laboratories, SK-4100) was used to develop the stain and hematoxylin was used as nuclear counterstain. Stained slides were imaged at 40× magnification. Quantitative analyses of IHC images were performed using ImageJ.

Structure (SMILES): CCn1c(-c2cc(N3CCN(C4CC4)CC3)cnc2[C@H](C)OC)c2c3cc(ccc31)-c1csc(n1)C[C@H](NC(=O)[C@H]1[C@@H]3COC[C@@H]31)C(=O)N1CCC[C@H](N1)C(=O)OCC(C)(C)C2 [RMC-7977]
- potency in three additional KRASQ61H PDAC lines ([1]; KRASQ61H (Pa02C, T3M-4, UM147), 5 days): low nanomolar potency
- sensitivity of KRASWT cell lines and organoids ([1]; KRASWT cell lines and organoids): wider range of sensitivity
- potency in concentration-response cell viability assays ([1]; most human PDAC cell lines, 5 days): low nanomolar potency
- sensitivity in vitro ([1]; two human cell lines, one KRASQ61H, one KRASWT with BRAF ClassII mutation): lower sensitivity
- potency in concentration-response cell viability assays [2]: low nanomolar potency
- evaluable EP KPC tumors with full inhibition of pERK expression ([3]; 6 of 7 tumors, 4 hours post final dose): 86%
- proliferation (Cyclin A2) in EP tumors ([3]; EP tumors, 24 hours post-dosing): no longer deeply suppressed
- apoptosis in KPC tumors ([3]; SD, 1 Wk and EP samples, 4 hours after treatment): wave of apoptosis
- reduced proliferation (Cyclin A2) in KPC tumors ([3]; after a week of treatment): pronounced and significant
- proliferation (Cyclin A2) in KPC tumors ([3]; single dose): trend towards reduced proliferation
- time to restoration of Ras/Mapk signaling ([3]; single dose): ≤ 24 h
- Ras/Mapk signaling (pERK IHC) in KPC tumors ([3]; single dose, 4 hours after treatment): near-complete inhibition
- pS6 (S235/S236 and S240/S244) in EP tumors ([3]; the same 6 EP tumors): continued inhibition
